Assay results published in patent publication US20260373149A1, “MIXED LINEAGE KINASE DOMAIN LIKE PSEUDOKINASE (MLKL) ACTIVATORS” (Trustees of Tufts College, priority 2022, published 2026).
Residue numbers refer to the chain shown, from its start.

Legend:
Type in all cases: cell-based
[1] = tested on: transformed mouse embryonic fibroblasts with genetic deletions of RIPK3 and MLKL genes; assay: Viability of transformed mouse embryonic fibroblasts with genetic deletions of RIPK3 and MLKL genes; conditions: MEFs with genetic deletions of RIPK3 and MLKL; FIG. 3
Method: Viability of transformed mouse embryonic fibroblasts with genetic deletions of RIPK3 and MLKL genes and treated with SS-1-127 are shown. Affinities of select MLKL activators against recombinant human RIPK1, RIPK3, and MLKL were determined by DiscoveRx.
The compounds described herein are capable of directly activating the downstream executioner of necroptosis, MLKL, thus bypassing a requirement for RIPK3 (FIG. 2).

[2] = target: T1, S345A/S347A mutant of MLKL (Mus musculus, UniProt Q9D2Y4, S345A/S347A); assay: Viability of Mlkl-/- MEFs expressing S345A/S347A mutant of mouse MLKL-FLAG (CellTiter-Glo); conditions: 5 μM; 50 ng/ml Dox 6 hr, then 24 hr; FIG. 6
T1 sequence (Q9D2Y4 1-472 S345A/S347A): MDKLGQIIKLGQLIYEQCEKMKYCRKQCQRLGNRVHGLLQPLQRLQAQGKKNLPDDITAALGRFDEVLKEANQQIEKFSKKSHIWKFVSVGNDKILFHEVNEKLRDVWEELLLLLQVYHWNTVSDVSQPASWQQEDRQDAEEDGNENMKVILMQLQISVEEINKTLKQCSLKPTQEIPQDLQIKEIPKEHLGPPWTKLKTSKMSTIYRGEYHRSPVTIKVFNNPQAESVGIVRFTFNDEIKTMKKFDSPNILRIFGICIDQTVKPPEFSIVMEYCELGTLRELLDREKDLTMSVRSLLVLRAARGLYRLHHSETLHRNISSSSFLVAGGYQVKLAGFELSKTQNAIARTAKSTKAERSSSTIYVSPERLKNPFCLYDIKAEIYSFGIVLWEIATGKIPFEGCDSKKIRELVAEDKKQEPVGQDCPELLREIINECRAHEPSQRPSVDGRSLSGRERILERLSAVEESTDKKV
Method: (§1) Plots show cell viability (%) versus MLKL mutant expressed. […] Cells conditionally expressing wild type and mutants of MLKL have been generated. M272W mutant of MLKL is active but predicted not to bind to MLKL activators. S345A/S347A mutant of MLKL lacks RIPK3 phosphorylation sites. Cells were treated with 50 ng/ml of Dox for 6 hr followed by MLKL activators (left panels) or TNFα/IDN6556 (right panels). The latter combination is a canonical inducer of necroptosis through RIPK3 activation. 5 μM ALD-6-85 and SS-1-127 were used in top and bottom panels, respectively.
(§2) The activity of ALD-6-85 was tested in the cells expressing either wild type MLKL or mutant expressing a bulky Trp residue in place of M272 gatekeeper residue. This mutation is expected to disrupt binding of the drug to MLKL. […] To ensure that observed reduction in killing is not due to the intrinsically lower pro-death activity of M272W mutant, cells were also stimulated with TNF+IDN, inducing necroptosis through a canonical TNFR1-RIPK1-RIPK3-MLKL pathway. […] We also generated MEFs expressing S345A, S347A double mutant of mouse MLKL.

[3] = target: T2, E239Q mutant of mouse MLKL (Mus musculus, UniProt Q9D2Y4, E239Q); assay: Viability of Mlkl-/- MEFs expressing wild type or E239Q mutant of mouse MLKL-FLAG (CellTiter-Glo); conditions: E239Q vs wild type mouse MLKL; 50 ng/ml Dox 6 hr, then compound 24 hr; FIG. 7
T2 construct: expressed in transfected cells; host or cells: Mlkl-/- mouse embryonic fibroblasts (MEFs), lentiviral, doxycycline-inducible
T2 sequence (Q9D2Y4 1-472 E239Q): T1 sequence (Q9D2Y4 1-472 S345A/S347A) with E239Q, A345S, A347S
Method: Mlkl^−/− mouse embryonic fibroblasts (MEFs) were stably infected with lentiviral vector encoding wild type and E239Q mutant of mouse MLKL-FLAG under the control of the Doxocyclin (Dox)-inducible promoter. […] After 24 hr, cell viability at the end of treatment was determined using CellTiter-Glo Viability assay (Promega).

M272W mutant of MLKL = target: T3, M272W mutant of MLKL (Mus musculus, UniProt Q9D2Y4, M272W); assay: Viability of Mlkl-/- MEFs expressing M272W mutant of mouse MLKL-FLAG (CellTiter-Glo); conditions: 5 μM; 50 ng/ml Dox 6 hr, then 24 hr; FIG. 6
T3 sequence (Q9D2Y4 1-472 M272W): T1 sequence (Q9D2Y4 1-472 S345A/S347A) with M272W, A345S, A347S
Method: as §1, §2

| SMILES | Cell death induced by SS-1-127: dependence on MLKL and RIPK3 [1] | Effect of S345A, S347A double mutation on killing by SS-1-127 [2] | Activity / cell death with E239Q mutation compared to wild type MLKL [3] | Death in cells expressing M272W MLKL compared to wild type (M272W mutant of MLKL) |
| --- | --- | --- | --- | --- |
| CCN(CC)CCOc1ccc(Nc2ncc3cc(-c4ccc(O)c(C#N)c4)c(=O)n(C)c3n2)cc1 [SS-1-127, 5-(2-((4-(2-(Diethylamino)ethoxy)phenyl)amino)-8-methyl-7-oxo-7,8-dihydropyrido[2,3-d]pyrimidin-6-yl)-2-hydroxybenzonitrile] | dependent on MLKL expression and independent from RIPK3 | minor effect on killing | much improved activity when combined with E239Q mutation compared to wild type MLKL |  |
| CCN(CC)CCOc1ccc(Nc2ncc3cc(-c4ccc(O)c([N+](=O)[O-])c4)c(=O)n(C)c3n2)cc1 [ALD-6-85] |  |  |  | induces reduced death in the cells expressing M272W MLKL compared to wild type protein |
